This test relates to E. coli SugE guanidine-II riboswitch aptamer, 47mer FRET construct (C1G) (RNA, riboswitch, 5-aminoallyl-uridine at 3 (dye conjugated)) GUUUGCAGGACGACCUGCAAACGCCUCUUUUCACCGGGGACGGCCCC
Nature of the test: smFRET histograms, immobilised RNA (kissing-loop state population). The following applies: Mg2+ 1 mM, 50 mM Tris/Cl pH 7.4, 22 °C, imaging buffer, 30 nM-30 mM ligand.

This note sets out measurements from paper PMC9094411 (2022).

On to `N=C(N)N`, for which the binding result (K-state 66% at 30 mM) is “yes”.

With `NC(N)=O`, the binding result (K-state 66% at 30 mM buffer, highest tested 30 mM, no K-state shift, RNA destabilised (U-state 35%)) is reported as “no”.
